Source: article PMC6957262 (Bioorganic & medicinal chemistry letters, 2015)

Legend:
[1] = molecular target: T1, hTRPV1 (Homo sapiens, UniProt Q8NER1); test: hTRPV1 antagonism of capsaicin; format: cell-based; conditions: for fold loss in antagonistic potency compared to the corresponding parent (1 or 2): less potent than parent
[2] = molecular target: T1, hTRPV1; test: hTRPV1 antagonism of pH activation; format: cell-based; conditions: heat (45 °C), NADA

T1 sequence (Q8NER1 whole entry): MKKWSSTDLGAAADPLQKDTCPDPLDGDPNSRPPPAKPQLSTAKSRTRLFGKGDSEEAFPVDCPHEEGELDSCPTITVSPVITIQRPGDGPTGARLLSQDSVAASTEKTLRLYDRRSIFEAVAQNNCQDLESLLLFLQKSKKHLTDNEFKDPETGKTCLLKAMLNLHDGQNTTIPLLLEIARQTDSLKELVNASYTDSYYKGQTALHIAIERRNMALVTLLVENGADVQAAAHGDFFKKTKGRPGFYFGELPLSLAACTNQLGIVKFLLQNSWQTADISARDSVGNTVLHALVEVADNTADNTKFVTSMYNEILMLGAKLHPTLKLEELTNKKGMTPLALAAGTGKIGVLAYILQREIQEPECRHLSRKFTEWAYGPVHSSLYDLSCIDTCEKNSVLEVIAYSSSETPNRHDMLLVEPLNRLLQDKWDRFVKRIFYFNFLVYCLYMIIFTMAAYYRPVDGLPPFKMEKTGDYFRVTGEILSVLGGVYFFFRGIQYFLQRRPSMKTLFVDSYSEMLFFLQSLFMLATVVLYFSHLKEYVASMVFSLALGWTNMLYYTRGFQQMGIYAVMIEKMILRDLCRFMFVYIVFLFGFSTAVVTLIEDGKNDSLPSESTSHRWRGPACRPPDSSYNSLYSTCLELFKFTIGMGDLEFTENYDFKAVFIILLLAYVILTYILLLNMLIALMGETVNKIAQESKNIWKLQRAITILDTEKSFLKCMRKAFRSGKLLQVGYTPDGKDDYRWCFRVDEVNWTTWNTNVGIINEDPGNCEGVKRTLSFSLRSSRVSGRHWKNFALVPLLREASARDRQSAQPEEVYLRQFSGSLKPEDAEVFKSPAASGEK

| fold loss in antagonistic potency compared to the corresponding parent (1 or 2) [1] | fold more potent than parent 1 ([1]; improvement over parent 1) | fold weaker potency toward the other activators compared to 1 [2] | SMILES |
| --- | --- | --- | --- |
| 3–8 fold |  |  | Cc1ccc(C(C(=O)NCc2ccc(C(F)(F)F)nc2N2CCC(C)CC2)c2ccc(NS(C)(=O)=O)c(F)c2)cc1 (stereo not drawn) [Compound 36] |
| 3–8 fold |  |  | Cc1ccc(C(C(=O)NCc2ccc(C(F)(F)F)nc2SC2CCCCC2)c2ccc(NS(C)(=O)=O)c(F)c2)cc1 (stereo not drawn) [Compound 37] |
| > 100 fold |  |  | CC1CCN(c2nc(C(F)(F)F)ccc2CNC(=O)C(c2ccc(NS(C)(=O)=O)c(F)c2)C2CCCC2)CC1 (stereo not drawn) [Compound 22] |
| > 140 fold |  |  | Cc1ccccc1C(C(=O)NCc1ccc(C(F)(F)F)nc1SC1CCCCC1)c1ccc(NS(C)(=O)=O)c(F)c1 (stereo not drawn) [Compound 33] |
|  | 3 fold | 5–15 fold | Cc1cccc(C(C(=O)NCc2ccc(C(F)(F)F)nc2N2CCC(C)CC2)c2ccc(NS(C)(=O)=O)c(F)c2)c1 (stereo not drawn) [Compound 34] |
| > 140 fold |  |  | Cc1ccccc1C(C(=O)NCc1ccc(C(F)(F)F)nc1N1CCC(C)CC1)c1ccc(NS(C)(=O)=O)c(F)c1 (stereo not drawn) [Compound 32] |
| > 100 fold |  |  | CS(=O)(=O)Nc1ccc(C(C(=O)NCc2ccc(C(F)(F)F)nc2SC2CCCCC2)C2CCCCC2)cc1F (stereo not drawn) [Compound 25] |
| > 100 fold |  |  | CC1CCN(c2nc(C(F)(F)F)ccc2CNC(=O)C(c2ccc(NS(C)(=O)=O)c(F)c2)C2CCCCC2)CC1 (stereo not drawn) [Compound 24] |
| 60 fold |  |  | Cc1cccc(C(C(=O)NCc2ccc(C(F)(F)F)nc2SC2CCCCC2)c2ccc(NS(C)(=O)=O)c(F)c2)c1 (stereo not drawn) [Compound 35] |
| 5 fold |  |  | CCC(C(=O)NCc1ccc(C(F)(F)F)nc1N1CCC(C)CC1)c1ccc(NS(C)(=O)=O)c(F)c1 (stereo not drawn) [Compound 21] |
| > 100 fold |  |  | CS(=O)(=O)Nc1ccc(C(C(=O)NCc2ccc(C(F)(F)F)nc2SC2CCCCC2)C2CCCC2)cc1F (stereo not drawn) [Compound 23] |
